Entries after “also recorded” stand apart in the source; their conditions may differ.
Key:
[1] = system: Pseudomonas aeruginosa (G−); assay: Microbial kill study (log reduction), Pseudomonas aeruginosa; assay type: cell-based; conditions: P. aeruginosa
Description: (§1) Studies were conducted to determine the antimicrobial capabilities of cationic arginine derivatized surfactants produced according to embodiments of the subject invention.
(§2) The test organisms were a mixture of Gram-negative and Gram-positive organisms, which served to validate the breadth of the spectrum of control and the utility of the technology for common pathogens of public health concern: Pseudomonas aeruginosa (Gram-negative), Staphylococcus aureus (Gram-positive) and Salmonella entericus (Gram-negative).
(§3) Test bacteria were grown at 32° C. for 24-48 hours in tryptic soy broth, then plated at a starting concentration of 10^7. PBS was used for dilution to achieve the desired cell concentration.
(§4) A stock solution of each antimicrobial treatment was created in water, which was then used to create each desired dilution for treatment: 25, 50, 200, 400, 500, 750, 1,000, 1,500, 2,000 and 4,000 ppm, in an appropriate volume of buffer. Buffers included 100 mM of citric acid, ammonium HCL, PBS or sodium bicarbonate.
The created cell dilution of 10^7 CFU/mL was mixed with either 100 uL to 900 uL of antimicrobial at the appropriate PPM, or 1-9 mL of antimicrobial at the appropriate PPM. The final concentration of the organism was […] once mixed with the antimicrobial. […]
After 24 to 48 hours of incubation, plates were removed from the incubator and colony numbers were counted. […]

Salmonella enterica (G−) = assay: Microbial kill study (log reduction), Salmonella enterica; assay type: cell-based; conditions: for Log Reduction S. enterica (G−) 100 ppm 0 min / Log Reduction S. enterica (G−) 100 ppm 2 min / Log Reduction S. enterica (G−) 100 ppm 5 min / Activity Reduction S. enterica (G−) 100 ppm 5 min: pH 7, 100 ppm; for Activity Reduction S. enterica (G−) 100 ppm 5 min: day 4 accelerated stability vs day 0
Description: as §1, §2, §3, §4
(§5) The created cell dilution of 10^7 CFU/mL was mixed with either 100 uL to 900 uL of antimicrobial at the appropriate PPM, or 1-9 mL of antimicrobial at the appropriate PPM. The final concentration of the organism was […] once mixed with the antimicrobial.
(§6) The moment the organism was added to the antimicrobial, the timer was started for the desired time period (0, 2, 5, 6 or 10 min). At the end of the timer, the antimicrobial was neutralized, and dilutions were then plated onto TSA plates and incubated for 24-48 hours at 32° C.
(§7) The negative control comprised 0.1 mL from the organism stock plated onto a TSA plate. For the positive control a serial dilution was set up with a starting concentration of 400 PPM quaternary ammonium compound (QAC) and organism. Dilutions were plated at 10^2, 10^3 and 10^4 CFU/mL.
(§8) After 24 to 48 hours of incubation, plates were removed from the incubator and colony numbers were counted.
(§9) The below scale is commonly used in determining a compound's efficacy, where a greater than or equal to 6-fold logarithmic (≥6 log) reduction in less than 10 minutes is needed for disinfection.
(§10) Table 3 summarizes surface tension reduction at 1000 ppm and log reduction of S. aureus and S. enterica at 0 and 10 min. (200 ppm) for four categories of cationic amino alcohol surfactants according to embodiments of the subject invention.
(§11) Tables 4-5 summarize the pH stability over 4 days for a C12 cationic amino alcohol surfactant according to embodiments of the subject invention, LRO (RO), compared with LAE (RE), where LRO was produced through the coupling of a lauroyl chloride substrate and arginine ethyl ester. Log reductions were measured according to the procedures described above in Example 2.

[2] = Surface tension reduction at 1000 ppm; assay type: physicochemical
Description: Table 2 summarizes surface tension reduction at 1000 ppm and log reduction of P. aeruginosa at 0 and 10 min. (200 ppm) for two C12 cationic amino alcohol surfactants according to embodiments of the subject invention, LRO (R) and LKO (K), where LRO was produced through the coupling of a lauroyl chloride substrate and arginine ethyl ester and LKO was produced through the coupling of a lauroyl chloride substrate and lysine ethyl ester.
as §10

[3] = system: Staphylococcus aureus (G+); assay: Microbial kill study (log reduction), Staphylococcus aureus; assay type: cell-based; conditions: for Log Reduction S. aureus (G+) 100 ppm 0 min / Log Reduction S. aureus (G+) 100 ppm 2 min / Log Reduction S. aureus (G+) 100 ppm 5 min / Activity Reduction S. aureus (G+) 100 ppm 5 min: pH 7, 100 ppm; for Activity Reduction S. aureus (G+) 100 ppm 5 min: day 4 accelerated stability vs day 0
Description: as §1, §2, §3, §4, §5, §6, §7, §8, §9, §10, §11

[4] = base-catalyzed hydrolysis of the ester, lactam formation; listed as LAE; cited from earlier work

| Molecule | Log Reduction S. enterica (G−) 200 ppm 0 min (Salmonella enterica (G−)) | Log Reduction S. enterica (G−) 200 ppm 10 min (Salmonella enterica (G−)) | Log Reduction S. enterica (G−) 100 ppm 0 min (Salmonella enterica (G−); Day 0 Stability) | Log Reduction S. enterica (G−) 100 ppm 2 min (Salmonella enterica (G−); Day 0 Stability) | Log Reduction S. enterica (G−) 100 ppm 5 min (Salmonella enterica (G−); Day 0 Stability) | Log Reduction S. enterica (G−) 100 ppm 0 min (Salmonella enterica (G−); Day 4 Accelerated Stability) | Log Reduction S. enterica (G−) 100 ppm 2 min (Salmonella enterica (G−); Day 4 Accelerated Stability) | Log Reduction S. enterica (G−) 100 ppm 5 min (Salmonella enterica (G−); Day 4 Accelerated Stability) | Activity Reduction S. enterica (G−) 100 ppm 5 min (Salmonella enterica (G−)) | Surface Tension 1000 ppm ([2]; 1000 ppm (Table 3)) | Log Reduction S. aureus (G+) 200 ppm 0 min [3] | Log Reduction S. aureus (G+) 200 ppm 10 min [3] | Log Reduction S. aureus (G+) 100 ppm 0 min ([3]; Day 0 Stability) | Log Reduction S. aureus (G+) 100 ppm 2 min ([3]; Day 0 Stability) | Log Reduction S. aureus (G+) 100 ppm 5 min ([3]; Day 0 Stability) | Log Reduction S. aureus (G+) 100 ppm 0 min ([3]; Day 4 Accelerated Stability) | Log Reduction S. aureus (G+) 100 ppm 2 min ([3]; Day 4 Accelerated Stability) | Log Reduction S. aureus (G+) 100 ppm 5 min ([3]; Day 4 Accelerated Stability) | Activity Reduction S. aureus (G+) 100 ppm 5 min [3] | other results |
| --- | --- | --- | --- | --- | --- | --- | --- | --- | --- | --- | --- | --- | --- | --- | --- | --- | --- | --- | --- | --- |
| CCCCCCCCCCCC(=O)NC(CO)CCCNC(=N)N (stereo not drawn) [C12 R O, lauryl argininol alcohol] | 0.00 log | 6.20 log | 0.00 log | 1.32 log | 2.36 log | 0.00 log | 0.00 log | 0.79 log | 66.53% | 23.75 mN/m | 0.00 log | 6.24 log | 0.00 log | 2.17 log | 6.53 log | 0.00 log | 0.76 log | 6.53 log | 0.00% | Log Reduction 200 ppm 0 min ([1]; 0 min): 1.85 log; Log Reduction 200 ppm 10 min ([1]; 10 min): 6.25 log; Surface Tension 1000 ppm ([2]; 1000 ppm (Table 2)): 23.75 mN/m |
| CCCCCCCCCCCC(=O)N[C@@H](CCCN=C(N)N)C(=O)OCC [C12 R E, Ethyl lauroyl arginate, reference compound] |  |  | 0.00 log | 6.42 log | 6.42 log | 0.00 log | 0.00 log | 0.00 log | 100.00% |  |  |  | 0.00 log | 6.53 log | 6.53 log | 0.00 log | 0.93 log | 1.14 log | 82.54% | pH stability [4]: decreases at higher pH; also recorded: unstable at pH 7 or above |
| linear sophorolipid argininol amide [SLP R O] | 0.00 log | 0.00 log |  |  |  |  |  |  |  | 41.89 mN/m | 0.00 log | 2.23 log |  |  |  |  |  |  |  |  |

— US20260028552A1, “Cationic Surfactants with Improved pH Stability and Their Use” (Locus Solutions IPCo, LLC, priority 2022, published 2026)
